In patent publication US6316423A, “Method of treating ischemic, hypoxic and anoxic brain damage” (priority 1999, dated 2001):

Tests used:
[1] = test system: gerbils subjected to 10 minutes of ischemia; test: Postischemic Morris water maze test (spatial memory); format: in vivo, gerbil
Method: The Morris water maze (Morris et al., supra) is now considered the most direct means of assessing post-ischemic memory and learning of spatially oriented tasks (Corbett et al., Neuroreport, 3, 204 (1992)). This test is well known in the art and the specific parameters of this test as used herein are defined below. Female gerbils (Tumblebrook Farms, Mass.) weighing 70 g were used in the study. Prior to inclusion in the experiments, animals were tested for susceptibility to spontaneous seizures using the method described by Lee et al., Neuropharmacol., 5, 517 (1984). Seizure-prone gerbils were rejected.
The details of the water maze are known in the art (von Lubitz et al., 1993 supra). Briefly, the system consists of a tank (1 m diameter) which is filled with opaque water to a depth of 30 cm. The tank contains a colorless target platform (15 cm diameter) submerged to a depth of 1.5 cm and placed in the center of the north-west quadrant. […]
Prior to subjecting the gerbils to 10 minutes of ischemia, the gerbils were randomly divided into the control and the drug testing groups. […] During post-ischemic recovery, animals were monitored each day for signs of functional damage (e.g., pareses) that might affect their subsequent water maze performance. Postischemic mortality was also monitored every day.

[2] = target: Rat A2 adenosine receptor; test: Affinity for A2 adenosine receptor isolated from rats; format: binding; conditions: rat A2 adenosine receptors; read-out: Ki for Rat A2 Receptors (printed K1)
Excerpt: Table 3 below indicates the structure and Ki values for these compounds. Thus, each of these compounds is expected to find utility in the context of the present invention. The five analogues indicated within Table 3 are given for the purposes of illustrating the nature of ADAC-analogues and is not meant to be comprehensive. Additionally, these compounds can be synthesized using a similar approach as the one employed for ADAC. These methods are known in the art. For example, the synthesis of these compounds can be guided by U.S. Pat. No. 5,248,770 or by Jacobson et al., Journal of Medicinal Chemistry, 28, 1341-1346 (1985).

[3] = Cardiovascular effects and body temperature of ADAC in nonischemic (normoxic) gerbils; format: in vivo, gerbil; conditions: for Blood pressure / Cardiac rate: 100 μg/kg ADAC, ± SEM
Excerpt: Blood pressure was monitored using a Harvard Apparatus (South Natick, Mass.) rat tail blood pressure monitor (von Lubitz et al., 1994 supra), while a Silogic EC-60 cardiac and respiratory monitor (Stewartstown, Pa.) was used to measure cardiac rate. EEG clip electrodes were attached to the unshaven loose skin of the armpits and to both thighs saturated with EEG gel.

[4] = test system: gerbils exposed to 10 minutes of brain ischemia; test: Dose-response of preischemic ADAC on survival after 10 minutes of ischemia; format: in vivo, gerbil; conditions: 15 min preischemia, control 40%
Excerpt: This higher selectivity results in lower quantities of drug administration required for maximum neuroprotection. Lower administered quantities in turn, result in attenuation or elimination of side-effects.

[5] = test system: microtubule associated protein 2 (MAP-2); test: MAP-2 preservation in CA1 after 10 minute ischemia, postischemic ADAC; format: in vivo, gerbil; conditions: 100 μg/kg at 2, 6 or 12 h postischemia
Excerpt: Animals were allowed to survive either 2 or 7 days. They were then perfused with a freshly made 3.5 solution of paraformaldehyde in phosphate buffered saline (pH 7.4). After removal, brains were cut at 40 μm, and the sections were stained immunohistochemically with a monoclonal MAP-2 antibody (Sigma) diluted 1:500-1000. Standard peroxidase anti-peroxidase procedure of ABC complex with Vector kit (Hsu et al., 1981) intensified with heavy metal (Adams, 1981) was used. For immunofluorescent studies, the sections were incubated at 4° C. with the primary antibody overnight. Following three 5-10 minute washes, the sections were exposed to the secondary antibodies, i.e., fluorescein isothiocyanate, rhodamine isothiocyanate, and Texas Red conjugated goat anti-mouse IgG. The secondary antibodies were diluted at 1:20-100 in 0.1M phosphate buffer. Qualitative morphological and immunostaining characteristics of the sections were studied using an epifluorescent microscope (Nikon Labophot) equipped with filters (Nikon B2 and Nikon G1B) appropriate for the detection of the secondary antibodies.
Quantitative analysis of MAP-2 presence in the dendritic fields of CA1 was made using a computer image analysis system (Biographics Inc., Winston-Salem, N.C.).

**Q.** Which “preference for target quadrant in postischemic probe trial” value ([1]; FIG. 2, controls lost all preference) does the source give for `NCCNC(=O)Cc1ccc(NC(=O)Cc2ccc(Nc3ncnc4c3ncn4[C@@H]3O[C@H](CO)[C@@H](O)[C@H]3O)cc2)cc1` [ADAC] here?
**A.** retained a high preference for the target quadrant

**Q.** What about the “recovery of postischemic water maze performance” value ([1]; preischemic ADAC, FIG. 1) of the same compound?
**A.** regained water maze performance levels that mirrored the plateau level obtained in preischemic training almost immediately (trial 2, day 9)

**Q.** What about the Ki [2] of the same compound?
**A.** 210 nM

**Q.** And the Blood pressure ([3]; 5 min post injection)?
**A.** 83 ± 1 mm Hg

**Q.** What about the Cardiac rate ([3]; 5 min post injection) of the same compound?
**A.** 385 ± 6 beats/min

**Q.** And the Blood pressure ([3]; 15 min post injection)?
**A.** 81 ± 1 mm Hg

**Q.** And the Cardiac rate ([3]; 15 min post injection)?
**A.** 382 ± 7 beats/min

**Q.** What about the Blood pressure ([3]; 30 min post injection) of the same compound?
**A.** 82 ± 2 mm Hg

**Q.** And the Cardiac rate ([3]; 30 min post injection)?
**A.** 383 ± 8 beats/min

**Q.** What about the Blood pressure ([3]; 60 min post injection) of the same compound?
**A.** 80 ± 2 mm Hg

**Q.** And the Cardiac rate ([3]; 60 min post injection)?
**A.** 383 ± 6 beats/min

**Q.** What about the “changes of body temperature” value ([3]; 100 μg/kg, nonischemic gerbils) of the same compound?
**A.** did not cause any significant changes

**Q.** And the “changes of cardiac rate” value ([3]; 100 μg/kg, nonischemic gerbils)?
**A.** did not cause any significant changes

**Q.** What about the “changes of mean arterial blood pressure” value ([3]; 100 μg/kg, nonischemic gerbils) of the same compound?
**A.** did not cause any significant changes

**Q.** What about the “bradycardia, hypotension, or decreased cerebral (cortical) blood flow” value ([3]; 0.1 mg/kg intraperitoneal, normoxic gerbils, within 120 minutes) of the same compound?
**A.** not accompanied by a statistically significant bradycardia, hypotension, or decreased cerebral (cortical) blood flow

**Q.** And the “cardiovascular effects at higher concentrations” value ([3]; 0.3 mg/kg and beyond, within 30 minutes of administration)?
**A.** manifests cardiovascular effects within 30 minutes of administration of 0.3 mg/kg and beyond

**Q.** And the survival rate ([4]; 0.025 mg/kg)?
**A.** 30%

**Q.** And the survival rate ([4]; 0.050 mg/kg)?
**A.** 60%

**Q.** And the “survival rate (plateau)” value ([4]; 75, 100, or 200 mg/kg (so in the source))?
**A.** 80%

**Q.** And the “loss of MAP-2 density in CA1” value ([5]; 2 days after ischemia, control 50% loss)?
**A.** no loss

**Q.** And the “decrease of MAP-2 density in CA1” value ([5]; 7 days after occlusion)?
**A.** approximately 15%
